What was measured:
Type in all cases: biochemical
CLK2 (h) = biological target: T1, CLK2 (h) (Homo sapiens, UniProt P49760); experiment: radiometric kinase assay (KinaseProfiler, Eurofins), CLK2; settings: in vitro radiometric kinase assay, tested at 1 nM to 10 000 nM, no pre-incubation; read-out: inhibitory activities (IC50 values) CLK2
T1 construct: purchased Eurofins (KinaseProfiler)
Protocol: (§1) The compounds were profiled in the radiometric assays (KinaseProfiler, Eurofins).
(§2) Briefly, kinases were diluted in the buffer shown below prior to addition to the reaction mix: • CDKL3, TAF1L: 20 mM Tris/HCl pH 8.5, 0.2 mM EDTA, 0.1% β-mercaptoethanol, 0.01% Brij-35, 5% glycerol, 1 mg/ml BSA; • Haspin: 15 mM MOPS, 0.75 mM EDTA, 0.0075% Brij-35, 3.75% Glycerol, 150 mM NaCl, 0.1% β-mercaptoethanol, 1 mg/mLBSA; • CDKL4, CLK2, PIM1, TRB2: […], 1 mM EDTA, 0.01% Brij-35, 5% Glycerol, 0.1% β-mercaptoethanol, 1 mg/mL BSA.
(§3) All compounds were prepared to 50x final assay concentration in 100% DMSO. This working stock of the compound was added to the assay well as the first component in the reaction, followed by the remaining components as detailed in the general assay protocols below. There was no pre-incubation step between the compound and the kinase prior to initiation of the reaction.
CLK2 (h) was incubated with 8 mM MOPS pH 7.0, 0.2 mM EDTA, 20 µM […](p)EDEEE (SEQ ID NO. 2), 10 mM magnesium acetate and γ-^33P-ATP (specific activity and concentration as required). The reaction was initiated by the addition of the Mg/ATP mix. After incubation for 40 minutes at room temperature, the reaction was stopped by the addition of phosphoric acid to a concentration of 0.5%. An aliquot of the reaction was then spotted onto a filter and washed four times for 4 minutes in 0.425% phosphoric acid and once in methanol prior to drying and scintillation counting.
(§4) Kinase activity data were expressed as the percent remaining kinase activity in tested samples compared to the vehicle (DMSO) reactions. The compounds were tested at the following concentrations: 1 nM, 3 nM, 10 nM, 30 nM, 100 nM, 300 nM, 1000 nM, 3000 nM, and 10 000 nM; IC50 values and curve fits were then obtained.

TRB2(h) = biological target: T2, TRB2(h) (Homo sapiens, UniProt Q92519); experiment: radiometric kinase assay (KinaseProfiler, Eurofins), TRB2; settings: in vitro radiometric kinase assay, tested at 1 nM to 10 000 nM, no pre-incubation; read-out: inhibitory activities (IC50 values) TRB2
T2 construct: purchased Eurofins (KinaseProfiler)
T2 sequence (Q92519 1-343): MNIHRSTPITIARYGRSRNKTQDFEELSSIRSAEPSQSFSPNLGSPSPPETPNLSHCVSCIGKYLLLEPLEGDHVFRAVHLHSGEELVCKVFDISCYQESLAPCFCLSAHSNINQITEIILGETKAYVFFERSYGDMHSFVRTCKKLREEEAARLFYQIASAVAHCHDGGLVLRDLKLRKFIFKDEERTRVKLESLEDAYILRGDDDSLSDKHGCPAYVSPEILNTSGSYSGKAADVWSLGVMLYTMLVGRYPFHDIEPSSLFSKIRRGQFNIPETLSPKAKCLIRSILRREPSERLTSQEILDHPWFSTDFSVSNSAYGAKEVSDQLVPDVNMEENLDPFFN
Protocol: as §1, §2, §3
(§5) TRB2(h) was incubated with 8 mM MOPS pH 7.0, 0.2 mM EDTA, 250 µM RRRFRPASPLRGPPK (SEQ ID NO. 1), 10 mM magnesium acetate and γ-^33P-ATP (specific activity and concentration as required). The reaction was initiated by the addition of the Mg/ATP mix. After incubation for 120 minutes at room temperature, the reaction was stopped by the addition of phosphoric acid to a concentration of 0.5%. An aliquot of the stopped reaction was spotted onto a filter and washed four times for 4 minutes in 0.425% phosphoric acid and once in methanol prior to drying and scintillation counting.
as §4

TAF1L(h) = biological target: T3, TAF1L(h) (Homo sapiens, UniProt Q8IZX4); experiment: radiometric kinase assay (KinaseProfiler, Eurofins), TAF1L; settings: in vitro radiometric kinase assay, tested at 1 nM to 10 000 nM, no pre-incubation; read-out: inhibitory activities (IC50 values) TAF1L
T3 construct: purchased Eurofins (KinaseProfiler)
T3 sequence (Q8IZX4 whole entry): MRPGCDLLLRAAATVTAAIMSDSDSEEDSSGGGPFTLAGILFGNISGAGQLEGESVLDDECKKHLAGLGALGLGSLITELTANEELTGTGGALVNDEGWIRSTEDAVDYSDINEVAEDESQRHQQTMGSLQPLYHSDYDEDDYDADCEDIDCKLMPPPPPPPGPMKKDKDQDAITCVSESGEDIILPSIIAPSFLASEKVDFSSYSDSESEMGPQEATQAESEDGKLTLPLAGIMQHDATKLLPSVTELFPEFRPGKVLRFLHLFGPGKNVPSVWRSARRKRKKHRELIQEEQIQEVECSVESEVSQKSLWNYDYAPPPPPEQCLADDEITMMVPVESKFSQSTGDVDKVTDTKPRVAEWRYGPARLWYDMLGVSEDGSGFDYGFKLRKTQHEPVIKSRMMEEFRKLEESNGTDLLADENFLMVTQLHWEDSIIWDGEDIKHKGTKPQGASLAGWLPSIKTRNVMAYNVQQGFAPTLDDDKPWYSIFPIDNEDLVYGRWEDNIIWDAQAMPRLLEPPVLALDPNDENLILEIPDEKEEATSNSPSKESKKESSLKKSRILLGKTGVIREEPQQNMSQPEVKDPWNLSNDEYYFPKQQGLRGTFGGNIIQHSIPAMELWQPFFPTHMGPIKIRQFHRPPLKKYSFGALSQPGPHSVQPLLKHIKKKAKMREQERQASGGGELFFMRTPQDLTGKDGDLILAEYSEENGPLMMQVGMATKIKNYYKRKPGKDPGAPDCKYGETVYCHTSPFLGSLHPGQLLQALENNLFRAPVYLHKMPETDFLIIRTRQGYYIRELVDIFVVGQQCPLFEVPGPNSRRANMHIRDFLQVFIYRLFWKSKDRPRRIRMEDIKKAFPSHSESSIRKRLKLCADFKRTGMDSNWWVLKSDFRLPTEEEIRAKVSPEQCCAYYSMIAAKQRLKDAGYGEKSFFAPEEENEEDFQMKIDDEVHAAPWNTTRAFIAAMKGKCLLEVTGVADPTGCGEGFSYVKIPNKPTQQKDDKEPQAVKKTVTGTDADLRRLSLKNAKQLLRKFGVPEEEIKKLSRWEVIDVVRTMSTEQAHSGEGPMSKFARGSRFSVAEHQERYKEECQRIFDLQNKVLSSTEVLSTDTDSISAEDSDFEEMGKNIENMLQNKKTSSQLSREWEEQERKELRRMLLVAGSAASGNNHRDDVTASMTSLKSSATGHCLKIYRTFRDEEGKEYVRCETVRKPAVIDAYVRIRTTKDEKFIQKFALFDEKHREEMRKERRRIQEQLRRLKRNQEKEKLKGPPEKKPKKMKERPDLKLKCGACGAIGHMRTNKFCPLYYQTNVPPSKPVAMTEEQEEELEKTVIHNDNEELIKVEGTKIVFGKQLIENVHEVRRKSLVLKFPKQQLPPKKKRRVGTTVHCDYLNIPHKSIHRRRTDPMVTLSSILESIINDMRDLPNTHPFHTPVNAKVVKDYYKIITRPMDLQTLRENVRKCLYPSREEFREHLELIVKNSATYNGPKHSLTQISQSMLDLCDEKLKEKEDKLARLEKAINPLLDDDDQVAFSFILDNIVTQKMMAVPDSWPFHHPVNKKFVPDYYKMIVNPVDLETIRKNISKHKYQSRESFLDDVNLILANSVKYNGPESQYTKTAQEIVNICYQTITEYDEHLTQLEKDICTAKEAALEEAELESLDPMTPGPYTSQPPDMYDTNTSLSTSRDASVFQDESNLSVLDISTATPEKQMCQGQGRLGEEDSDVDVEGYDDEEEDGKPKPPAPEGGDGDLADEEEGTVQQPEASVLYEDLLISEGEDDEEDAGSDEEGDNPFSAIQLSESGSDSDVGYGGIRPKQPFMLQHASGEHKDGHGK
Protocol: as §1, §2, §3
as §5, with “TAF1L(h)” for “TRB2(h)”, “20” for “8”, “Tris/HCl” for “MOPS”, “8.5,” for “7.0,”
as §4

DYRK2 (h) = biological target: T4, DYRK2 (h) (Homo sapiens, UniProt Q92630); experiment: radiometric kinase assay (KinaseProfiler, Eurofins), DYRK2; settings: in vitro radiometric kinase assay, tested at 1 nM to 10 000 nM, no pre-incubation; read-out: inhibitory activities (IC50 values) DYRK2
T4 construct: purchased Eurofins (KinaseProfiler)
T4 sequence (Q92630 1-601): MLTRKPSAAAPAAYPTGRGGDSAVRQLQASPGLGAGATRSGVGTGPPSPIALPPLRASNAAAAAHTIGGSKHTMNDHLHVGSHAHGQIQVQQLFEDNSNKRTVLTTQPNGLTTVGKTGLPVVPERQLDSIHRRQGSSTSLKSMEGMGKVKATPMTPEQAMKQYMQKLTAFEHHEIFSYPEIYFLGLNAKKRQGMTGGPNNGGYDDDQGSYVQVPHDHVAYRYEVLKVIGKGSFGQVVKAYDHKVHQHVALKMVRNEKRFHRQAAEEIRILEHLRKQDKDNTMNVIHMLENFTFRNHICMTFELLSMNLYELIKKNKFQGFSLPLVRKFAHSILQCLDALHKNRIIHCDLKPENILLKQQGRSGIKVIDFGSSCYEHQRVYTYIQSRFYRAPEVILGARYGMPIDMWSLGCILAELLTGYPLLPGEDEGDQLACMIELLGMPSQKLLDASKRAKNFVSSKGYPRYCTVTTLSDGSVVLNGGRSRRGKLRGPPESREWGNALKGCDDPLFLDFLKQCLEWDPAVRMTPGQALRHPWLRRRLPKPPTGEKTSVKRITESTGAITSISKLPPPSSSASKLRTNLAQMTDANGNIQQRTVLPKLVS
Protocol: as §1, §3
DYRK2 (h) was incubated with 8 mM MOPS pH 7.0, 0.2 mM EDTA, 2 mg/mL casein, 10 mM magnesium acetate and γ-^33P-ATP (specific activity and concentration as required). The reaction was initiated by the addition of the Mg/ATP mix. After incubation for 40 minutes at room temperature, the reaction was stopped by the addition of phosphoric acid to a concentration of 0.5%. An aliquot of the reaction was then spotted onto a filter and washed four times for 4 minutes in 0.425% phosphoric acid and once in methanol prior to drying and scintillation counting.
as §4

T1 sequence (P49760 whole entry): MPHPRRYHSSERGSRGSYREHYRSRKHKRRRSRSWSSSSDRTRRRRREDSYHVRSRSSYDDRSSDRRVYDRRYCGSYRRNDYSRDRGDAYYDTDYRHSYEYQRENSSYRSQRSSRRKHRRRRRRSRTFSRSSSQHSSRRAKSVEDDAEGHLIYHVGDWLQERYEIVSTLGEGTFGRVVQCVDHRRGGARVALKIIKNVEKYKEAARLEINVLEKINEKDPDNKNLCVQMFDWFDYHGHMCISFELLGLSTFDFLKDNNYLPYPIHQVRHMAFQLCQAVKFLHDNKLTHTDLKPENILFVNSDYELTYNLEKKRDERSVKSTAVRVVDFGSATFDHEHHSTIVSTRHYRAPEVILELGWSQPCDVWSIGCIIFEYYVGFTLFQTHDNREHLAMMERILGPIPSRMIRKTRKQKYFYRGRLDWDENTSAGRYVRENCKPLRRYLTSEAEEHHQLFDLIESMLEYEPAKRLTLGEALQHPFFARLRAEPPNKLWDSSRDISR

| SMILES | IC50 (CLK2 (h)) [nM] | IC50 (TRB2(h)) [nM] | IC50 (TAF1L(h)) [nM] | IC50 (DYRK2 (h)) [nM] |
| --- | --- | --- | --- | --- |
| Cn1cc(-c2ccc3scc(-c4ccnc(F)c4)c3n2)cn1 [Preparative Example 22, 3-(2-fluoropyridin-4-yl)-5-(1-methyl-1H-pyrazol-4-yl)thieno[3,2-b]pyridine] | 3000 to 10000 | 100 to 499 | 100 to 499 | 500 to 3000 |
| Cc1cc(-c2csc3ccc(-c4cnn(C)c4)nc23)cc(C)n1 [Preparative Example 30, 3-(2,6-dimethylpyridin-4-yl)-5-(1-methyl-1H-pyrazol-4-yl)thieno-[3,2-b]pyridine] | 3000 to 10000 | 500 to 3000 | 100 to 499 | 500 to 3000 |
| Cn1cc(-c2ccc3scc(-c4ccnc(CN)c4)c3n2)cn1 [Preparative Example 28, (4-(5-(1-methyl-1H-pyrazol-4-yl)thieno[3,2-b]pyridin-3-yl)pyridin-2-yl)methanamine] | 3000 to 10000 | 500 to 3000 | 500 to 3000 | 100 to 499 |
| Cc1nsc(-c2csc3ccc(-c4cnn(C)c4)nc23)n1 [Preparative Example 71, 3-(3-methyl-1,2,4-thiadiazol-5-yl)-5-(1-methyl-1H-pyrazol-4-yl)thieno[3,2-b]pyridine] | 500 to 3000 | 100 to 499 | 100 to 499 | 100 to 499 |
| Cn1cc(-c2ccc3scc(-c4ccncc4C#N)c3n2)cn1 [Preparative Example 34, 4-(5-(1-methyl-1H-pyrazol-4-yl)thieno[3,2-b]pyridin-3-yl)nicotino-nitrile] | 3000 to 10000 | 3000 to 10000 | 500 to 3000 | 500 to 3000 |
| Cn1ccc(Nc2ccc3scc(-c4ccncc4)c3n2)n1 [Preparative Example 99, N-(1-methyl-1H-pyrazol-3-yl)-3-(pyridin-4-yl)thieno[3,2-b]pyridin-5-amine] | 500 to 3000 | 100 to 499 | 500 to 3000 | 3000 to 10000 |
| Cn1cc(-c2ccc3scc(-c4ccncc4)c3n2)nn1 [Preparative Example 93, 5-(1-methyl-1H-1,2,3-triazol-4-yl)-3-(pyridin-4-yl)thieno[3,2-b]pyridine] | 3000 to 10000 | 500 to 3000 | 500 to 3000 | 3000 to 10000 |
| Cn1cc(-c2ccc3scc(-c4ccccc4)c3n2)cn1 [Preparative Example 2, 5-(1-methyl-1H-pyrazol-4-yl)-3-phenylthieno[3,2-b]pyridine] | 3000 to 10000 | 500 to 3000 | 100 to 499 | 500 to 3000 |
| Cn1cc(-c2ccc3scc(-c4ccnc(C#N)c4)c3n2)cn1 | 3000 to 10000 | 100 to 499 | 100 to 499 | 500 to 3000 |
| c1ccc(Cn2cc(-c3ccc4scc(-c5ccncc5)c4n3)cn2)cc1 [Preparative Example 81, 5-(1-benzyl-1H-pyrazol-4-yl)-3-(pyridin-4-yl)thieno[3,2-b]pyridine] | 3000 to 10000 | 3000 to 10000 | 500 to 3000 | 3000 to 10000 |
| Cn1cc(-c2ccc3scc(-c4ccncc4)c3n2)c(NC(=O)OC(C)(C)C)n1 [Preparative Example 83, tert-butyl(1-methyl-4-(3-(pyridin-4-yl)thieno[3,2-b]pyridin-5-yl)-1H-pyrazol-3-yl)carbamate] | 3000 to 10000 | 500 to 3000 | 500 to 3000 | 3000 to 10000 |

Reference: EP4483954A1 (Masarykova Univerzita, priority 2023, dated 2025)
